Patent US20240342128A1, “IMMUNE MEMORY INDUCTION BY PLATINUM BASED COMPOUNDS” (AKAMARA THERAPEUTICS, INC., priority 2016, published 2024)

Legend:
splenic B cells [1] = assay: relative mRNA expression of B cell differentiation and TLR activation genes in isolated splenic B cells; type: in vivo; conditions: B cells from tumor bearing mice treated (Group 3), normalized to Group 1, FIG. 6B
Procedure: Mice splenic B cells were isolated from Group 1 and Group 3 mice, described in Example 3.
Spleen was harvested from mice (n=3) and minced into small pieces in RPMI-1640 basal media. The pieces were placed on top of a 40 mesh membrane and crushed with the back of a syringe and the single cell suspension was collected onto a 50 ml tube. The single cell suspension was washed twice with PBS to remove debris by centrifuging at 2000 rpm. Splenocytes were counted using haemocytometer and 100 million splenocytes were resuspended in 1 ml of isolation buffer (2% FBS, […] in DPBS) and transferred to a 5 ml polysterene tube. The B cells were isolated from splenocytes using the EasySep Stem Cell B cell isolation kit as per manufacturers protocol. Ten million B cells were used for RNA isolation, followed by relative mRNA expression levels of genes involved in B cell differentiation and TLR activation were evaluated.

T cell receptor (TCR) = assay: activation of TCR; conditions: in comparison to Oxaliplatin, FIG. 2A
LLC tumors = assay: immunohistochemical analysis of tumor sections, murine NSCLC tumor model; type: in vivo; conditions: LLC tumors in C57/BL6 mice, two cycles of treatment, FFPE sections, FIG. 1B
Procedure: Murine NSCLC tumor model was generated by subcutaneously implanting LLC cells in C57/BL6 mice. Treatment with either Compound 1 or Oxaliplatin was initiated when average tumor volume reached 100 mm^3. Following two cycles of treatment, tumors were harvested and a portion fixed in formalin. FFPE sections were generated from the fixed tumors and immunohistochemical analysis of tumor sections was carried out for both T and B-cells.

4T1 cells [2] = assay: immune memory study: re-implantation of 4T1 cells; type: in vivo, Balb/c mice
Procedure: 4T1 cells were subcutaneously implanted in Balb/c mice to generate tumors. When tumors reached an average volume of 100 mm^3, they were treated with Compound 1. Two groups of Balb/c mice (non-tumor bearing) were either treated with Compound 1 or saline (designated Group 1 and 2 respectively; FIG. 3A).
Immune memory cells are poised to rapidly expand and induce effector functions upon recurrence, while existing in a functionally quiescent state. In order to check this hypothesis, we examined immune memory in Compound 1 treated tumors. […] The results also rule out the effect of any residual drug inducing tumor memory in non-tumor bearing animals.

4T1 cells [3] = assay: ds-RNA detection by propidium iodide staining after DNase/RNase treatment; type: cell-based
Procedure: 4T1 cells were grown on a coverslip in RPMI media to 70-80% confluency. The cells were treated with Compound 1 or Oxaliplatin. Detection of ds-RNA was a modification of protocol described by Kantarjian et al. (Kantarjian et al., Blood. 1985 July; 66(1):39-46). Following treatment, the coverslips were washed in phosphate-buffered saline (PBS) and fixed in 70% ice-cold ethanol. Cells were then washed with saline and treated with 1 mg/mL of DNase in 0.25 mol/L sucrose, 5 mmol/L MgCl2, and 20 mmol/L Tris-HCL (pH 6.5) at 37° C. for 60 min. In addition, another set of cells, subjected to Compound 1 or Oxaliplatin treatment were treated with RNase at a concentration of 5 mg/mL at 37° C. for 60 minutes. After another wash in PBS, the coverslips were exposed to propidium iodide at a final concentration of 50 μg/ml, diluted in a solution containing 10 mmol/L Tris-HCl (pH 7.4) and 5 mmol/L MgCl2. Stained cells were kept at 4° C. prior to microscopic analysis using a NIKON epi-fluorescence microscope using excitation wavelengths of 480 nm and emission wavelengths of 590 nm.

CD8+ T cells in tumors = assay: infiltration of cytotoxic CD8+ T-cells in treated tumors; type: in vivo; conditions: FIG. 2B
4T1 tumors [4] = assay: relative mRNA expression (qRT-PCR) of immune genes in harvested 4T1 tumors; type: in vivo; conditions: 4T1 tumors in Balb/c mice, one cycle of treatment, FIG. 1A
Procedure: 4T1 cells were subcutaneously implanted in Balb/c mice to generate tumors. When tumors reached an average volume of 100 mm^3, they were treated with either Compound 1 or Oxaliplatin. After one cycle of treatment, following regression, tumors were harvested and a portion of the tumor from each group was used for total RNA isolation. The tumor infiltrating immune cells were evaluated for relative mRNA expression levels of immune activating and immune suppressive genes (Denkert et al., Clin Oncol. 2015; 33(9):983-91).

4T1 tumors [5] = assay: tumor regression in immunocompetent versus immune-deficient mice strains; type: in vivo, mice (Balb/c, Jh−/−, SCID); conditions: FIG. 4
Excerpt: To understand the role of immune components in tumor regression following treatment with Compound 1, tumor regression was studied in three different mice strains. These included immunocompetent mice (Balb/c); B cell-deficient mice (designated Jh^−/−) and mice lacking functional B cells and T cells (SCID). 4T1 cells were subcutaneously implanted in the three strains mentioned and when tumors reached an average volume of 100 mm^3, they were divided into two groups. One group was kept as control and the other treated with Compound 1 and the tumor volume in all the animals were recorded.

splenic B cells [6] = assay: splenic B cells cultured with treatment conditioned media (TCM) from treated 4T1 cells, relative mRNA expression; type: cell-based, mice
Procedure: 4T1 cells were seeded in cell culture dishes in RPMI-1640 media containing 10% FBS. The cells were treated with Oxaliplatin and Compound 1 when they reached 60% confluence. Following a transient treatment of 6 hours, the media was removed and supplemented with fresh culture media. Cells were incubated at 37° C. for 24 hours. After 24 hours, the treatment conditioned media (TCM) was collected from each treatment and divided into two parts. One part was passed through 0.1 micron PES filters to obtain tumor conditioned media free of cell debris, with nucleic acids intact; while the other was passed through 0.1 micron Nylon membrane filters, where the nucleic acids would stick and get removed. The filtration process through Nylon membrane was repeated twice to remove all nucleic acids from the TCM. The harvested TCMs were used immediately for conditioning of B cells, isolated from naïve mice splenocytes using the EasySep Stem Cell B cell isolation kit as per manufacturers protocol. The B cells were incubated with conditioned media and harvested after 24 hours of incubation. RNA was isolated from the B cells and used for relative mRNA expression level evaluation of genes involved in B cell differentiation and TLR activation.

SMILES: CC(C)CCC[C@@H](C)[C@H]1CCC2C3CC=C4C[C@@H](OCCN(CC(=O)[O-])CC(=O)[O][Pt+]5[NH][C@@H]6CCCC[C@H]6[NH]5)CC[C@]4(C)C3CC[C@@]21C (stereo partly drawn) [Compound 1]
- IGKC mRNA levels in splenic B cells (splenic B cells [1]): significant increase in IGKC mRNA levels
- expression of TLRs and CD80 in splenic B cells (splenic B cells [1]): elevated expression of TLRs and CD80
- activation of TCR (T cell receptor (TCR)): substantial activation of TCR
- B220 level by immunohistochemistry (LLC tumors): elevated levels
- IGKC level by immunohistochemistry (LLC tumors): elevated levels
- tumor growth after implantation of 4T1 cells in treated non-tumor bearing mice (4T1 cells [2]; Group 1: non-tumor bearing Balb/c mice treated, similar to saline treated mice (Group 2), FIG. 3C): led to the growth of tumors
- tumor growth upon re-implantation of cancer cells (immune memory) (4T1 cells [2]; Group 3: animals that had previously undergone tumor regression with treatment, FIG. 3B): no tumor growth was observed upon re-implantation of cancer cells
- relative fluorescent intensity per field (dsRNA amount) (4T1 cells [3]; DNase treated samples, propidium iodide stain, FIG. 5C): enhancement of relative fluorescent intensity per field
- stability of RNA adducts (4T1 cells [3]; compared to Oxaliplatin): more stable RNA adducts
- infiltration of cytotoxic T cells (CD8+ T cells) in tumors (CD8+ T cells in tumors): infiltration of cytotoxic T cells
- IGKC mRNA levels in tumors (4T1 tumors [4]): significant increase in IGKC mRNA levels
- tumor regression in mice lacking immune cells (4T1 tumors [5]; 4T1 tumors in B cell-deficient (Jh−/−) and SCID mice, growth similar to control mice): Tumors do not regress
- tumor regression in immunocompetent mice (4T1 tumors [5]; 4T1 tumors in Balb/c mice): causes tumor regression only in immunocompetent mice
- B cell differentiation markers and TLR activation markers (relative mRNA) (splenic B cells [6]; TCM with nucleic acids intact (PES filter), 24 hours incubation, FIG. 7B): substantially increased
- relative level of B cell differentiation and TLR activation markers, nucleic acid depleted TCM (splenic B cells [6]; nucleic acids removed from TCM (Nylon membrane filter), FIG. 7C): substantially reduced
